In the experiment the test system is MX-1 breast xenograft, nude mice, tumor weight T/C. Description: NCI In Vivo Anticancer Drug Screen. Data for tumor model Human Mammary Carcinoma MX-1 Xenograft (intrarenal inoculation) in NU/NU Swiss (nude) mice. Particulars: endpoint: mean tumor weight change, higher = larger tumour. An outline of the steps:
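Activity is given as a ratio, with each measurement in the compound-treated arm divided by the matching measurement in vehicle-dosed controls. Tumour size or survival serves as the measured parameter.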
In general terms: A xenograft is tissue or cells of one species grown in another, often human tumour cells in immunodeficient mice.

The mark [1] stands for this setting: dose: 50.0 mg/kg/injection, schedule: Q01DX010 (sc), vehicle: Klucel (hydroxypropylcellulose) (HPC).
Setting [2] is: dose: 400.0 mg/kg/injection, schedule: Q01DX010 (sc), vehicle: Klucel (hydroxypropylcellulose) (HPC).
The mark [3] stands for this setting: dose: 12.5 mg/kg/injection, schedule: Q01DX010 (sc), vehicle: saline with Tween-80.
Setting [4] is: dose: 50.0 mg/kg/injection, schedule: Q04DX003 (sc), vehicle: saline with Tween-80.
The mark [5] stands for this setting: dose: 100.0 mg/kg/injection, schedule: Q04DX003 (sc), vehicle: saline with Tween-80.
[6] abbreviates: dose: 600.0 mg/kg/injection, schedule: Q04DX003 (sc), vehicle: saline with Tween-80.
The mark [7] stands for this setting: dose: 1200.0 mg/kg/injection, schedule: Q04DX003 (sc), vehicle: saline with Tween-80.
Setting [8] is: dose: 2400.0 mg/kg/injection, schedule: Q04DX003 (sc), vehicle: saline with Tween-80.
Where [9] appears, read: dose: 150.0 mg/kg/injection, schedule: Q04DX003 (sc), vehicle: Klucel (hydroxypropylcellulose) (HPC).
Where [10] appears, read: dose: 1200.0 mg/kg/injection, schedule: Q04DX003 (sc), vehicle: Klucel (hydroxypropylcellulose) (HPC).
Where [11] appears, read: dose: 25.0 mg/kg/injection, schedule: Q01DX010 (sc), vehicle: saline with Tween-80.
Where [12] appears, read: dose: 300.0 mg/kg/injection, schedule: Q04DX003 (sc), vehicle: Klucel (hydroxypropylcellulose) (HPC).
The mark [13] stands for this setting: dose: 600.0 mg/kg/injection, schedule: Q04DX003 (sc), vehicle: Klucel (hydroxypropylcellulose) (HPC).
Setting [14] is: dose: 100.0 mg/kg/injection, schedule: Q01DX010 (sc), vehicle: Klucel (hydroxypropylcellulose) (HPC).
Where [15] appears, read: dose: 200.0 mg/kg/injection, schedule: Q01DX010 (sc), vehicle: water.

The structures appear in SMILES notation. Values joined by “and” are separate entries in the source; they are usually repeats but may differ in a detail not shown here. Equal entries are not always repeated. Results filed as inconclusive are left out.

Turning to `C=CCNc1ccc(C)cc1`, the T/C by setting is: (dose: 25.0 mg/kg/injection, schedule: Q01DX010 (sc), vehicle: Klucel (hydroxypropylcellulose) (HPC)) 97 % of control; under setting [1], 69 % of control and 70 % of control; (dose: 200.0 mg/kg/injection, schedule: Q01DX010 (sc), vehicle: Klucel (hydroxypropylcellulose) (HPC)) 70 % of control and 76 % of control; under setting [2], 16 % of control.
With `CN(N=O)C(N)=O`, the T/C reads like this: under setting [3], 41 % of control; (dose: 12.5 mg/kg/injection, schedule: Q04DX003 (sc), vehicle: saline) 83 % of control; (dose: 25.0 mg/kg/injection, schedule: Q04DX003 (sc), vehicle: saline) 54 % of control; (dose: 25.0 mg/kg/injection, schedule: Q04DX003 (sc), vehicle: suspension in saline) 54 % of control; under setting [4], 17 % of control; (dose: 50.0 mg/kg/injection, schedule: Q04DX003 (sc), vehicle: saline) 6 % of control. In addition, the T/C (dose: 50.0 mg/kg/injection, schedule: Q04DX003 (sc), vehicle: suspension in saline) is 63 % of control; the T/C under setting [5] was -68 % of control; the T/C (dose: 100.0 mg/kg/injection, schedule: Q04DX003 (sc), vehicle: saline) was -100 % of control; the T/C (dose: 100.0 mg/kg/injection, schedule: Q04DX003 (sc), vehicle: suspension in saline) was 17 % of control.
On to `C[C@@H](CN1CC(=O)NC(=O)C1)N1CC(=O)NC(=O)C1`, for which the T/C runs as follows: (dose: 100.0 mg/kg/injection, schedule: Q01DX010 (sc), vehicle: saline with Tween-80) 63 % of control; (dose: 200.0 mg/kg/injection, schedule: Q01DX010 (sc), vehicle: saline with Tween-80) 81 % of control; (dose: 400.0 mg/kg/injection, schedule: Q01DX010 (sc), vehicle: saline with Tween-80) 39 % of control.
Consider `NCC1CCC(C(=O)O)CC1` (stereo not given), for which the T/C under setting [6] is 115 % of control, the T/C under setting [7] is 76 % of control and the T/C under setting [8] was 155 % of control.
On to `Cn1cc(C2NC(=O)c3ccccc3N2)c2ccccc21` (stereo not given), for which the T/C runs as follows: under setting [9], 113 % of control; under setting [10], 108 % of control.
For the compound `CNC(=O)c1cccc2c(Nc3ccc(NS(C)(=O)=O)cc3OC)c3cccc(C)c3nc12`, the T/C (dose: 50.0 mg/kg/injection, schedule: Q04DX003 (sc), vehicle: water) is 111 % of control; the T/C (dose: 100.0 mg/kg/injection, schedule: Q04DX003 (sc), vehicle: water) is 73 % of control; the T/C (dose: 200.0 mg/kg/injection, schedule: Q04DX003 (sc), vehicle: water) is 31 % of control.
As for `CC(=O)O[C@@H]1[C@@H](O)C2=C3[C@]4(C)[C@@H]1C(C)(C)C(=O)C[C@@H]4[C@]3(O)[C@H](OC(C)=O)[C@@]1(C[C@@H]1C)C2=O`, the T/C reads like this: under setting [3], 106 % of control; under setting [11], 114 % of control; (dose: 50.0 mg/kg/injection, schedule: Q01DX010 (sc), vehicle: saline with Tween-80) 319 % of control.
Turning to `COC1=C2C[C@@H](C)C[C@@H](OC)[C@@H](O)[C@H](C)/C=C(\C)[C@@H](OC(N)=O)[C@H](OC)/C=C\C=C(/C)C(=O)NC(=CC1=O)C2=O`, the T/C was 102 % of control (dose: 4.0 mg/kg/injection, schedule: Q04DX003 (sc), vehicle: saline); 89 % of control (dose: 8.0 mg/kg/injection, schedule: Q04DX003 (sc), vehicle: saline); 89 % of control (dose: 16.0 mg/kg/injection, schedule: Q04DX003 (sc), vehicle: saline); 88 % of control and 94 % of control (dose: 32.0 mg/kg/injection, schedule: Q04DX003 (sc), vehicle: saline); 85 % of control (dose: 64.0 mg/kg/injection, schedule: Q04DX003 (sc), vehicle: saline); 66 % of control (dose: 128.0 mg/kg/injection, schedule: Q04DX003 (sc), vehicle: saline).
Take `C[C@@]12C(=O)OC(=O)[C@]1(C)[C@H]1CC[C@@H]2O1`: the T/C was 29 % of control (dose: 1.25 mg/kg/injection, schedule: Q04DX003 (sc), vehicle: Klucel (hydroxypropylcellulose) (HPC)) and 74 % of control (dose: 2.5 mg/kg/injection, schedule: Q04DX003 (sc), vehicle: Klucel (hydroxypropylcellulose) (HPC)).
Regarding `C[Si](C)(C)OSc1ccccc1[N+](=O)[O-]`, the T/C under setting [12] was 92 % of control; the T/C under setting [13] was 95 % of control; the T/C under setting [10] is 80 % of control; the T/C (dose: 2400.0 mg/kg/injection, schedule: Q04DX003 (sc), vehicle: Klucel (hydroxypropylcellulose) (HPC)) is 107 % of control.
As for `c1cc2c(c(CC3CO3)c1CC1CO1)OCCOCCOCCOCCO2` (stereo not given), the T/C is 57 % of control (dose: 75.0 mg/kg/injection, schedule: Q04DX003 (ip), vehicle: saline + alcohol); 65 % of control (dose: 150.0 mg/kg/injection, schedule: Q04DX003 (ip), vehicle: saline + alcohol); 78 % of control (dose: 300.0 mg/kg/injection, schedule: Q04DX003 (ip), vehicle: saline + alcohol).
With `O=[N+]([O-])/C=C\c1ccc2c(c1)OCO2`, the T/C is 214 % of control under setting [1], 91 % of control under setting [14] and 86 % of control under setting [2].
Consider `CNc1nc(NC)nc(NC)n1`, for which the T/C is, setting by setting: (dose: 25.0 mg/kg/injection, schedule: Q01DX010 (ip), vehicle: Klucel (hydroxypropylcellulose) (HPC)) 164 % of control; (dose: 100.0 mg/kg/injection, schedule: Q01DX010 (ip), vehicle: Klucel (hydroxypropylcellulose) (HPC)) 61 % of control; under setting [14], 93 % of control; (dose: 200.0 mg/kg/injection, schedule: Q01DX010 (ip), vehicle: Klucel (hydroxypropylcellulose) (HPC)) 40 % of control.
Take `CCCCNC(C)C1(O)Cc2c(O)c3c(c(O)c2C(OC2CC(N)C(O)C(C)O2)C1)C(=O)c1c(OC)cccc1C3=O` (stereo not given): the T/C (dose: 100.0 mg/kg/injection, schedule: Q01DX010 (sc), vehicle: water) was 115 % of control and the T/C under setting [15] is 75 % of control.
For `CN=C(N)N/N=C(\c1ccccc1)c1ccc(Br)cc1`, the T/C was 101 % of control (dose: 25.0 mg/kg/injection, schedule: Q04DX003 (sc), vehicle: saline with Tween-80); 163 % of control under setting [4]; 78 % of control under setting [5].
With `O=C(O)c1c2c(nc3ccccc13)Cc1ccccc1-2`, the T/C (dose: 25.0 mg/kg/injection, schedule: Q01DX010 (sc), vehicle: water) is 108 % of control and the T/C under setting [15] is 46 % of control.
Turning to `CCCCCCCCCCCCCCCC(=O)OCC1OC(n2ccc(N)nc2=O)C(O)C1O` (stereo not given), the T/C was 30 % of control (dose: 37.5 mg/kg/injection, schedule: Q04DX003 (sc), vehicle: saline with Tween-80) and 11 % of control under setting [6].
In the case of `CC(C#N)(C#N)N=Nc1ccc(Cl)cc1Cl`, the T/C reads like this: (dose: 300.0 mg/kg/injection, schedule: Q04DX003 (sc), vehicle: saline with Tween-80) 94 % of control; under setting [6], 94 % of control; under setting [7], 98 % of control; under setting [8], 92 % of control.
Regarding `CCCCCCCCCCCCCCCCCCOCC(COP(=O)([O-])OCC[N+](C)(C)C)OC` (stereo not given), the T/C (dose: 150.0 mg/kg/injection, schedule: Q04DX003 (sc), vehicle: saline) was 120 % of control.
As for `CC1(C)OC2C(COC(=O)c3ccc([N+](=O)[O-])cc3)OC(NC(=O)N(CCCl)N=O)C2O1` (stereo not given), the T/C (dose: 150.0 mg/kg/injection, schedule: Q04DX003 (sc), vehicle: saline with Tween-80) is 69 % of control and the T/C under setting [7] was 9 % of control.
In the case of `CS(=O)(=O)OCCCCOS(C)(=O)=O`, the T/C reads like this: (dose: 6.25 mg/kg/injection, schedule: Q01DX010 (sc), vehicle: saline with Tween-80) 114 % of control; under setting [3], 68 % of control; under setting [11], 49 % of control.
For the compound `C(C#CCN1CCOCC1)#CCN1CCOCC1`, the T/C by setting is: under setting [12], 72 % of control; under setting [13], 84 % of control; under setting [10], 61 % of control.
As for `O=S1(=O)CS(=O)(=O)OCCO1`, the T/C reads like this: (dose: 37.5 mg/kg/injection, schedule: Q04DX003 (sc), vehicle: Klucel (hydroxypropylcellulose) (HPC)) 25 % of control; (dose: 75.0 mg/kg/injection, schedule: Q04DX003 (sc), vehicle: Klucel (hydroxypropylcellulose) (HPC)) 42 % of control; under setting [9], 7 % of control.

The values are drawn from PubChem BioAssay AID296 (DTP/NCI, 2004).
